US20110065669A1, “OXAZOLOBENZIMIDAZOLE DERIVATIVES” (Merck Sharp & Dohme Corp., priority 2008, published 2011)

Molecular target: T1, recombinant human mGluR2 (Homo sapiens, UniProt Q14416)
T1 construct: expressed in transfected cells
Assay: FLIPR assay (Ca2+ mobilization), potentiation of the mGluR2 receptor
Format: cell-based
Conditions: CHO dhfr- cells expressing human mGluR2 and Gα16; potentiation after EC20 glutamate (900 nM)
Description: Inhibition constants are determined as follows. The compounds of the present invention may be tested in a […] (FLIPR) based assay. This assay is a common functional assay to monitor Ca^2+ mobilization in whole cells expressing recombinant receptor coupled with a promiscuous G-protein. CHO dhfr-cells stably expressing recombinant human mGluR2 and Gα16 loaded with Fluo-4 AM (Invitrogen, Carlsbad Calif.) are treated with dose responses of compounds and the Ca^2+ response is monitored on a FLIPR384 (Molecular Devices, Sunnydale Calif.) for agonist activity. The potentiation response is monitored after a subsequent addition of an EC20 concentration of glutamate (900 nM). The maximum calcium response at each concentration of compound for agonist or potentiation are plotted as dose responses and the curves are fitted with a four parameters logistic equation giving EC50 and Hill coefficient using the iterative non linear curve fitting software program.

T1 sequence (Q14416 19-872): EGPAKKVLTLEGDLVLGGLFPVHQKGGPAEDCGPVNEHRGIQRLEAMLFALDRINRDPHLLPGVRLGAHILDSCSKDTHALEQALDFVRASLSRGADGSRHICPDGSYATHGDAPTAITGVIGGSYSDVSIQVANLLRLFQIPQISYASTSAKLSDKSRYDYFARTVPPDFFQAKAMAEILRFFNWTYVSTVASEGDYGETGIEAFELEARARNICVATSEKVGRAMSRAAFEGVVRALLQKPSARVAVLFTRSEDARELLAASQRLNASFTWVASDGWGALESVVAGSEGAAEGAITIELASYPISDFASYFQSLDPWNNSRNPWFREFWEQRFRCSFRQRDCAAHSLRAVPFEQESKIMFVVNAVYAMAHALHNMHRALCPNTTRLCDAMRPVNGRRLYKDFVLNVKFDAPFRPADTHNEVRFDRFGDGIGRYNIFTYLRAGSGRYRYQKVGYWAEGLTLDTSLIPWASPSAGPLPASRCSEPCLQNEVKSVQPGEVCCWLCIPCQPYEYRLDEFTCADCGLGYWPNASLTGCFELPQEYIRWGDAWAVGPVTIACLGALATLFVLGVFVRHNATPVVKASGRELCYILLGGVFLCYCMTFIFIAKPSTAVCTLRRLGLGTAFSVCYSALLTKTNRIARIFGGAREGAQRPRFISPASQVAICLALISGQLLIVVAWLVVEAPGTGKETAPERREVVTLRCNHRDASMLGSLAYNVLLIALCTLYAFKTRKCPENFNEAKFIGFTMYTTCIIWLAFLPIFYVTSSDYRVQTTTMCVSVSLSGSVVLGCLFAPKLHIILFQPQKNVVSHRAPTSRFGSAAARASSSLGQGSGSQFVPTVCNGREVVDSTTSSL

CC(C)(c1ccc(OC[C@@H]2Cn3c(nc4ccccc43)O2)cc1)C(F)(F)F [Example 3-5, (2S)-2-{[4-(2,2,2-trifluoro-1,1-dimethylethyl)phenoxy]methyl}-2,3-dihydro[1,3]oxazolo[3,2-a]benzimidazole]
EC50: 12 nM

CC(C)(C)c1ccc(OC[C@@H]2Cn3c(nc4ccccc43)O2)cc1 [Example 1-4, (2S)-2-[(4-tert-butylphenoxy)methyl]-2,3-dihydro[1,3]oxazolo[3,2-a]benzimidazole]
EC50: 11 nM

Cn1nccc1-c1ccc(OC[C@@H]2Cn3c(nc4ccccc43)O2)cc1 [Example 2-1, (2S)-2-{[4-(1-methyl-1H-pyrazol-5-yl)phenoxy]methyl}-2,3-dihydro[1,3]oxazolo[3,2-a]benzimidazole]
EC50: 137 nM

CC(=O)c1cccc(OC[C@@H]2Cn3c(nc4ccccc43)O2)c1 [Example 1-5, 1-{3-[(2S)-2,3-dihydro[1,3]oxazolo[3,2-a]benzimidazol-2-ylmethoxy]phenyl}ethanone]
EC50: 522 nM

C[Si](C)(C)c1ccc(OC[C@@H]2Cn3c(nc4ccccc43)O2)cc1 [Example 4-1, (2S)-2-{[4-(trimethylsilyl)phenoxy]methyl}-2,3-dihydro[1,3]oxazolo[3,2-a]benzimidazole]
EC50: 27 nM

Clc1cccc(OC[C@@H]2Cn3c(nc4ccccc43)O2)c1 [Example 3-9, (2S)-2-[(3-chlorophenoxy)methyl]-2,3-dihydro[1,3]oxazolo[3,2-a]benzimidazole]
EC50: 37 nM

c1ccc(OC[C@@H]2Cn3c(nc4ccccc43)O2)cc1 [Example 3-20, (2S)-2-(phenoxymethyl)-2,3-dihydro[1,3]oxazolo[3,2-a]benzimidazole, reference compound]
EC50: 235 nM
